Data from the supplement of paper PMC8617591.

Tests used:
[1] = system: Mycobacterium tuberculosis Erdman (autoluminescent); assay: Einf, fitted maximum growth inhibition of combination (fraction); higher = stronger maximal inhibition
Procedure: (§1)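 DiaMOND equipotent two-drug combination dose responses against autoluminescent M. tuberculosis Erdman in 8 in vitro models. Read-out is OD600, or luminescence for the intracellular and dormancy models, normalised to untreated wells. Hill-fit Einf, AUC25 and GRinf are potency metrics; FIC50 and FIC90 are Loewe-additivity fractional inhibitory concentrations, given as log2 (negative = synergy). Replicates are averaged.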

[2] = system: Mycobacterium tuberculosis Erdman (autoluminescent); assay: AUC25, normalised area under dose response up to IC25 (fraction (0-1)); higher = more potent at low dose
Procedure: as §1

[3] = system: Mycobacterium tuberculosis Erdman (autoluminescent); assay: FIC90 (Loewe) at 90% inhibition (log2); higher = more antagonistic
Procedure: as §1

[4] = system: Mycobacterium tuberculosis Erdman (autoluminescent); assay: GRinf, maximum normalised growth rate inhibition (unitless (-1 to 1)); higher = less effect (negative = killing)
Procedure: as §1

[5] = system: Mycobacterium tuberculosis Erdman (autoluminescent); assay: FIC50 (Loewe) at 50% inhibition (log2); higher = more antagonistic
Procedure: as §1

COc1nc2ccc(Br)cc2cc1[C@@H](c1ccccc1)[C@@](O)(CCN(C)C)c1cccc2ccccc12 [bedaquiline] + CC(=O)NC[C@H]1CN(c2ccc(N3CCOCC3)c(F)c2)C(=O)O1 [linezolid]
Settings	AUC25, [2]	Einf, [1]	FIC50, [5]	FIC90, [3]	GRinf, [4]
in vitro model: acidic pH 5.7, time point: constant (~7 days, model-specific)	0.0967	0.859	-0.0767	–	-0.481
in vitro model: acidic pH 5.7, time point: terminal (~4-5 doublings, model-specific)	0.0907	0.973	0.322	0.271	-0.338
in vitro model: intracellular J774, time point: constant = terminal	–	0.779	–	–	0.0692

Settings	AUC25, [2]	Einf, [1]	FIC50, [5]	FIC90, [3]	GRinf, [4]
in vitro model: butyrate, time point: constant (~7 days, model-specific)	0.0836	0.935	0.413	-0.0357	-0.0894
in vitro model: butyrate, time point: terminal (~4-5 doublings, model-specific)	0.0548	0.955	0.268	0.0422	-0.102
in vitro model: cholesterol 0.05 mM, time point: constant (~7 days, model-specific)	0.153	0.803	0.123	–	-0.345
in vitro model: cholesterol 0.05 mM, time point: terminal (~4-5 doublings, model-specific)	0.147	0.945	-0.0301	1.01	-0.326
in vitro model: cholesterol-high 0.2 mM, time point: constant (~7 days, model-specific)	0.12	0.99	-0.127	0.76	-0.87
in vitro model: cholesterol-high 0.2 mM, time point: terminal (~4-5 doublings, model-specific)	0.121	1	-0.334	0.414	-0.851
in vitro model: dormancy (butyrate + nitrate, low O2), time point: constant (~7 days, model-specific)	0.0774	0.933	0.344	0.554	0.113
in vitro model: dormancy (butyrate + nitrate, low O2), time point: terminal (~4-5 doublings, model-specific)	0.0484	0.984	0.546	0.263	-0.0845
in vitro model: standard 7H9 glycerol, time point: constant = terminal	0.0721	0.961	0.142	0.0991	-0.106
in vitro model: valerate, time point: constant (~7 days, model-specific)	0.104	0.901	1.02	1.36	-0.0681
in vitro model: valerate, time point: terminal (~4-5 doublings, model-specific)	0.067	0.947	0.743	0.916	-0.0615

COc1nc2ccc(Br)cc2cc1[C@@H](c1ccccc1)[C@@](O)(CCN(C)C)c1cccc2ccccc12 [bedaquiline] + CC(C)/N=c1\cc2n(-c3ccc(Cl)cc3)c3ccccc3nc-2cc1Nc1ccc(Cl)cc1 [clofazimine]
Settings	AUC25, [2]	Einf, [1]	FIC50, [5]	FIC90, [3]	GRinf, [4]
in vitro model: acidic pH 5.7, time point: constant (~7 days, model-specific)	0.105	0.853	0.214	–	-0.265
in vitro model: acidic pH 5.7, time point: terminal (~4-5 doublings, model-specific)	0.102	0.986	-0.0261	0.282	-0.322
in vitro model: intracellular J774, time point: constant = terminal	–	0.986	–	-0.499	-0.483

Settings	AUC25, [2]	Einf, [1]	FIC50, [5]	FIC90, [3]	GRinf, [4]
in vitro model: butyrate, time point: constant (~7 days, model-specific)	0.0673	0.946	-0.498	-0.794	-0.0975
in vitro model: butyrate, time point: terminal (~4-5 doublings, model-specific)	0.0515	0.979	-0.353	-0.858	-0.101
in vitro model: cholesterol 0.05 mM, time point: constant (~7 days, model-specific)	0.0912	0.741	-0.628	–	-0.147
in vitro model: cholesterol 0.05 mM, time point: terminal (~4-5 doublings, model-specific)	0.0989	0.945	0.39	0.028	-0.224
in vitro model: cholesterol-high 0.2 mM, time point: constant (~7 days, model-specific)	0.0661	0.946	-0.437	-0.58	-0.413
in vitro model: cholesterol-high 0.2 mM, time point: terminal (~4-5 doublings, model-specific)	0.0725	0.997	0.0406	-0.388	-0.62
in vitro model: dormancy (butyrate + nitrate, low O2), time point: constant (~7 days, model-specific)	0.0657	0.905	-0.281	-0.778	0.168
in vitro model: dormancy (butyrate + nitrate, low O2), time point: terminal (~4-5 doublings, model-specific)	0.067	0.988	-0.558	-0.863	-0.267
in vitro model: standard 7H9 glycerol, time point: constant = terminal	0.0822	0.974	-0.132	-0.648	-0.119
in vitro model: valerate, time point: constant (~7 days, model-specific)	0.112	0.94	-0.453	-1.82	-0.151
in vitro model: valerate, time point: terminal (~4-5 doublings, model-specific)	0.0649	0.956	0.0093	-0.0427	-0.0795

COc1nc2ccc(Br)cc2cc1[C@@H](c1ccccc1)[C@@](O)(CCN(C)C)c1cccc2ccccc12 [bedaquiline] + CC[C@@H](CO)NCCN[C@@H](CC)CO [ethambutol]
Settings	AUC25, [2]	Einf, [1]	FIC50, [5]	FIC90, [3]	GRinf, [4]
in vitro model: acidic pH 5.7, time point: constant (~7 days, model-specific)	0.133	0.831	0.111	–	-0.514
in vitro model: acidic pH 5.7, time point: terminal (~4-5 doublings, model-specific)	0.0618	0.961	0.595	-0.0708	-0.42
in vitro model: intracellular J774, time point: constant = terminal	–	1	–	-0.00203	-0.728

Settings	AUC25, [2]	Einf, [1]	FIC50, [5]	FIC90, [3]	GRinf, [4]
in vitro model: butyrate, time point: constant (~7 days, model-specific)	0.0683	0.948	0.277	–	-0.0865
in vitro model: butyrate, time point: terminal (~4-5 doublings, model-specific)	0.0577	0.978	0.142	-0.418	-0.0993
in vitro model: cholesterol 0.05 mM, time point: constant (~7 days, model-specific)	0.0646	0.736	0.507	–	-0.236
in vitro model: cholesterol 0.05 mM, time point: terminal (~4-5 doublings, model-specific)	0.0688	0.956	0.89	0.731	-0.404
in vitro model: cholesterol-high 0.2 mM, time point: constant (~7 days, model-specific)	0.026	0.994	0.819	–	-0.858
in vitro model: cholesterol-high 0.2 mM, time point: terminal (~4-5 doublings, model-specific)	0.0312	1	0.85	0.757	-0.687
in vitro model: dormancy (butyrate + nitrate, low O2), time point: constant (~7 days, model-specific)	0.139	0.866	1.04	–	0.338
in vitro model: dormancy (butyrate + nitrate, low O2), time point: terminal (~4-5 doublings, model-specific)	0.131	0.995	0.336	1.24	-0.154
in vitro model: standard 7H9 glycerol, time point: constant = terminal	0.0591	0.949	0.176	-0.108	-0.0657
in vitro model: valerate, time point: constant (~7 days, model-specific)	0.108	0.953	0.0258	–	-0.286
in vitro model: valerate, time point: terminal (~4-5 doublings, model-specific)	0.0819	0.979	0.247	-0.129	-0.0998
